In the Kinase Knowledgebase extract (Sharma et al. 2016):
Several values for one entry are separate records, joined by “and”; a condition that tells them apart may be missing. Equal values may be shown once.

Experiments:
CDK2;CDK1 (human) = CDK2;CDK1 (human) (UniProt P24941); experiment: Cell-Based Assay
CDK2 (human) [1] = target: CDK2 (human) (UniProt P24941); experiment: Enzyme Assay
CDK2 (human) [2] = target: CDK2 (human) (UniProt P24941); experiment: Enzyme Assay; remark: listed apart in the source

In the case of CC(=O)N[C@H]1CC[C@H](Nc2nc(NCc3ccc(-c4cccc(F)c4)cc3)c3ncn(C(C)C)c3n2)CC1, the GI50 (CDK2;CDK1 (human); hela-s3) is reported as 70 nM and 200 nM.
In the case of CC(=O)C1CCN(c2nc(NCc3ccc(-c4ccccc4)cc3)c3ncn(C(C)C)c3n2)CC1, the GI50 (CDK2;CDK1 (human); hela-s3) is reported as 3000 nM and 5000 nM.
Compound COC(=O)c1ccc(-c2ccc(CNc3nc(N[C@H]4CC[C@H](NC(C)=O)CC4)nc4c3ncn4C(C)C)cc2)cc1 has an IC50 (CDK2 (human) [1]) of over 10 µM.
For CC(=O)N[C@H]1CC[C@H](Nc2nc(NCc3ccc(-c4ccc(C(=O)O)cc4)cc3)c3ncn(C(C)C)c3n2)CC1, the IC50 (CDK2 (human) [1]) was over 10 µM and the IC50 (CDK2 (human) [2]) was over 10 µM.
CC(=O)N[C@H]1CC[C@H](Nc2nc(NCc3ccc(-c4ccc(F)cc4)cc3)c3ncn(C(C)C)c3n2)CC1 showed an IC50 (CDK2 (human) [1]) of over 10 µM.
For CC(C)n1cnc2c(NCc3ccc(-c4ccccc4)cc3)nc(N[C@H]3CC[C@H](O)CC3)nc21, the IC50 (CDK2 (human) [1]) was over 10 µM and the GI50 (CDK2;CDK1 (human); adr-res) was 30 nM.
With CC(=O)N[C@H]1CC[C@H](Nc2nc(NCc3ccc(-c4ccc(F)c(Cl)c4)cc3)c3ncn(C(C)C)c3n2)CC1 the IC50 (CDK2 (human) [1]) was over 10 µM.
Work on CC[C@H](CO)Nc1nc(NCc2ccc(-c3cccc(NC(C)=O)c3)cc2)c2ncn(C(C)C)c2n1 yielded an IC50 (CDK2 (human) [1]) of over 10 µM.
CC(=O)N[C@H]1CC[C@H](Nc2nc(NCc3ccc(-c4ccc(C)cc4)cc3)c3ncn(C(C)C)c3n2)CC1 gave an IC50 (CDK2 (human) [1]) of over 10 µM.
Work on CC(=O)N[C@H]1CC[C@H](Nc2nc(NCc3ccc(-c4ccccc4)nc3)c3ncn(C(C)C)c3n2)CC1 yielded a GI50 (CDK2;CDK1 (human); h226) of 52 nM.
With CC(=O)N[C@H]1CCCC[C@@H]1Nc1nc(NCc2ccc(-c3ccccc3)cc2)c2ncn(C(C)C)c2n1 the IC50 (CDK2 (human) [1]) was over 10 µM and the IC50 (CDK2 (human) [2]) was over 10 µM.
CC(C)n1cnc2c(NCc3ccc(-c4ccccc4)cc3)nc(N[C@H]3CCCC[C@H]3NC(=O)Nc3ccccc3)nc21 gave an IC50 (CDK2 (human) [1]) of over 10 µM and an IC50 (CDK2 (human) [2]) of over 10 µM.
For CC(C)n1cnc2c(NCc3ccc(-c4cccc(F)c4)cc3)nc(N[C@H]3CC[C@H](N)CC3)nc21, the GI50 (CDK2;CDK1 (human); hela-s3) was 50 nM and 30 nM.
CC(C)n1cnc2c(NCc3ccc(-c4ccccc4)cc3)nc(NC3(CO)CCCC3)nc21 was tested, and the IC50 (CDK2 (human) [1]) was over 10 µM.
With CC(=O)N[C@@H](C)CNc1nc(NCc2ccc(-c3ccccc3)cc2)c2ncn(C(C)C)c2n1 the IC50 (CDK2 (human) [1]) was at least 10 µM and the IC50 (CDK2 (human) [2]) was over 10 µM.
In the case of CC(=O)N[C@H]1CC[C@H](Nc2nc(NCc3ccc(-c4ccc(Cl)cc4)cc3)c3ncn(C(C)C)c3n2)CC1, the IC50 (CDK2 (human) [1]) is reported as over 10 µM.
